Data reported in ChEMBL document CHEMBL1201862, “PubChem BioAssay data set” (2004).
The source made the active and inactive calls. How the calls were made is not given here.

Biological target: T1, Exodeoxyribonuclease V (Escherichia coli (strain K12), UniProt P04993+P07648+P08394)
T1 sequence (P04993 whole entry): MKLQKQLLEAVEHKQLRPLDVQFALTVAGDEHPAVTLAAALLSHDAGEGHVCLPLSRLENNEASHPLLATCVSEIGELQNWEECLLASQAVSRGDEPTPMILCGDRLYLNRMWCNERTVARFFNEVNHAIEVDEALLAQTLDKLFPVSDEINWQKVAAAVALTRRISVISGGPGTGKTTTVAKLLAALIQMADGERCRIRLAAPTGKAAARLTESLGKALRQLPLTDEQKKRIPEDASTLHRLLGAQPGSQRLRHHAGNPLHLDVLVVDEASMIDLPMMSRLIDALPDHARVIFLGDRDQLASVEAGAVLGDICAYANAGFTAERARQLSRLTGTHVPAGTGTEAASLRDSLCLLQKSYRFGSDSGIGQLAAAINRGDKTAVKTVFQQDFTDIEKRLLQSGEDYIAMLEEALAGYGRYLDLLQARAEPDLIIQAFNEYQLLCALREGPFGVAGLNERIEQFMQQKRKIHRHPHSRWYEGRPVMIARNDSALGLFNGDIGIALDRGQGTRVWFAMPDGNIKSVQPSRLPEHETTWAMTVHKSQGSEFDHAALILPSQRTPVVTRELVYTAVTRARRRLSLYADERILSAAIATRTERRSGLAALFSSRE
T1 sequence (P07648 whole entry): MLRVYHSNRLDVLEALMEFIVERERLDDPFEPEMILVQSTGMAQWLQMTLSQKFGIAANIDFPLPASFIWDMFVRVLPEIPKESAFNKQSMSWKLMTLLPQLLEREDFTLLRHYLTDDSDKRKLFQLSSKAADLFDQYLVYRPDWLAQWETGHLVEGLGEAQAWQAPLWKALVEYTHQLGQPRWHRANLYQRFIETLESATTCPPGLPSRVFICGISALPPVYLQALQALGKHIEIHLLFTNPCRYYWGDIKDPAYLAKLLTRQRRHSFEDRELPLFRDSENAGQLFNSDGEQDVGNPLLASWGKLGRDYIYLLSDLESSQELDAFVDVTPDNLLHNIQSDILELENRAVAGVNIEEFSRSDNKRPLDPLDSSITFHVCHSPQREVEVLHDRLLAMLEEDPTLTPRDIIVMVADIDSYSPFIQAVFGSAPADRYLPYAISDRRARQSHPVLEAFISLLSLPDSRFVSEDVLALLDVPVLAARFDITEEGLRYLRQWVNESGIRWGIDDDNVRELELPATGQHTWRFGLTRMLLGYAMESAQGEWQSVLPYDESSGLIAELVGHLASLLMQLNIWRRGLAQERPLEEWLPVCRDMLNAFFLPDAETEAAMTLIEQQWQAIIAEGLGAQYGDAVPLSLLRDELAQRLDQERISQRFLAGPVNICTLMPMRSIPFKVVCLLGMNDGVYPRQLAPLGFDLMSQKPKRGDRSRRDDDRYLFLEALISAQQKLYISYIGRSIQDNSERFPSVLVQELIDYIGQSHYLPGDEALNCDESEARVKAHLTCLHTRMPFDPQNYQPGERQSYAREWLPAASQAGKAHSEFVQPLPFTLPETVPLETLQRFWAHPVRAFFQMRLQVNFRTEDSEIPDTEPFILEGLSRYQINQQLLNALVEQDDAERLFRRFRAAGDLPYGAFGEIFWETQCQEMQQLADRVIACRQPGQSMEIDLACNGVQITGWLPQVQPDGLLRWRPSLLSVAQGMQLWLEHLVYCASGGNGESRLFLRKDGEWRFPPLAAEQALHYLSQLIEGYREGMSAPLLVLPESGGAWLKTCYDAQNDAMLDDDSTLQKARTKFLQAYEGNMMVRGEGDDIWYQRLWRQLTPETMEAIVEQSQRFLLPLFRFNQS
T1 sequence (P08394 whole entry): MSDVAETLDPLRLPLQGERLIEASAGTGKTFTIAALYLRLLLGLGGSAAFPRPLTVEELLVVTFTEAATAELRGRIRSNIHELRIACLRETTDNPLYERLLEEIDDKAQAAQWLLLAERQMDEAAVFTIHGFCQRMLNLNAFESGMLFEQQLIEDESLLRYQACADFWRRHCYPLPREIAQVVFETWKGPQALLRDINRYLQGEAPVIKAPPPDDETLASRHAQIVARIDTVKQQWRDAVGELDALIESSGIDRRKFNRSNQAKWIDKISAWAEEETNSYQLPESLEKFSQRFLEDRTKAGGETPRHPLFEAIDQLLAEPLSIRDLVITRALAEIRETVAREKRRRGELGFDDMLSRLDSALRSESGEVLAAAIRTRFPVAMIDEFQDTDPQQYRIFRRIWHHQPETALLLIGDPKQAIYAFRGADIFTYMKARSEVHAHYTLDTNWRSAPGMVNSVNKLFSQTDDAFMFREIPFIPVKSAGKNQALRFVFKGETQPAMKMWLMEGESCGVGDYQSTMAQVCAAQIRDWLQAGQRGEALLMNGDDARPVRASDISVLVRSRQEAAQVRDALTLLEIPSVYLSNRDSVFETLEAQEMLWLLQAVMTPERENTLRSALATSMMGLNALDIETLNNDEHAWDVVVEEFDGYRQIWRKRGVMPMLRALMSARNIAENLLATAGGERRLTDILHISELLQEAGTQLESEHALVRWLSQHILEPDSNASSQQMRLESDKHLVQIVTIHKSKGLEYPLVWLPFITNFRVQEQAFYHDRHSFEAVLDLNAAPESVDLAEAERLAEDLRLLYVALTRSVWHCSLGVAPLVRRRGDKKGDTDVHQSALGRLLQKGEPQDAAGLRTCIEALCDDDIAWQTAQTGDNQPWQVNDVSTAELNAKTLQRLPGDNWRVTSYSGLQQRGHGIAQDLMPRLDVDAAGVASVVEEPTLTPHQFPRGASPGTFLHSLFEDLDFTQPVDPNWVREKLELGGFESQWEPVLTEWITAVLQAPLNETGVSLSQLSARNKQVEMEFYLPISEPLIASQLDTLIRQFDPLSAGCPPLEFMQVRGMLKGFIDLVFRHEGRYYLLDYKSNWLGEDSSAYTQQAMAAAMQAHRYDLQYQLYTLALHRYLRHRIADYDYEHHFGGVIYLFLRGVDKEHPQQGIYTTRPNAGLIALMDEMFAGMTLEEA
Assay: E. coli RecBCD inhibitors, dose response, counter-screen for AddAB inhibitor project, absorbance, V66 E. coli, mutant T4 phage (AID 492957)
Assay type: functional, cell-based, Escherichia coli str. K-12 substr. MG1655

With O=C(CNc1cccc2ccccc12)N/N=C/c1ccc([N+](=O)[O-])o1 the IC50 was > 118 µM (inactive).
In the case of O=C(CC(O)(C(F)(F)F)C(F)(F)F)Nc1ccc(Cl)c(Cl)c1, the IC50 is reported as 44 µM (inactive).
